Counter-ions that a name gives are not always drawn. Like-named read-outs stand apart in the source and are kept apart here.
Tested on: MLO-Y4 osteocytes
Experiment: High-throughput drug screening of primary cilia length and incidence
Assay type: cell-based
Experimental: MLO-Y4 osteocytes were maintained on collagen I-coated dishes in MEMα (Life_Technologies) supplemented with 5% fetal bovine serum (FBS), 5% calf serum (CS), and 1% penicillin/streptomycin (P/S) at 37° C. and 5% CO2. Osteocytes were then seeded onto 384-well collagen-coated plates for 72 hours before fixation. […] These libraries include Tocris, Sigma LOPAC, Selleck Chemical, Prestwick, and Spectrum commercially available compound libraries. All cell seeding and plate handling was performed with the Perkin Elmer cell:explorer workstation.
Cells were fixed in 4% paraformaldehyde and permeabilized with 0.1% Triton-X 100 (Sigma). 10% goat serum (vendor) was used for blocking. Cilia were stained using a monoclonal antibody against acetylated α-tubulin (1:20) from a C3B9 hybridoma cell line, and visualized with A F488 (1:1000, ThermoFisher). Nuclei were visualized with Hoechst. Cells were imaged using a GE INCell 2000 high-throughput imager at 40× magnification. 4 fields of view were taken per well.
Each pair of nuclei and cilia images was first analyzed individually, then the entire population was examined to evaluate each compound's effect on cilia length and incidence. A custom MATLAB script was developed to perform all image analysis. This script first utilizes an enhanced implementation of a watershed transform, which is a segmentation tool which enables detection of similarly shaped overlapping particles in noisy images by the procedural whittling down of pixels found close to the edge of such particles. The augmentation of the algorithm incorporates thresholding for noise removal based on signal intensity and object size, nuclei dilation to exclude non-cellular artifacts, as well as skeletonization of cilia to quantify length. The results of the analysis are number of nuclei, number of cilia, and average cilia length in each image.
Compounds were selected based on deviation from the population mean. Each well was normalized to vehicle control images on each plate, allowing the establishment of a normalized population mean. Hits were chosen based on compounds whose triplicate mean was furthest (based on standard deviation away) from the population mean. […] Compounds were classified based on mechanism of action.
To identify compounds that modulate primary cilia formation a high-throughput platform was developed to automate cell culture, staining, imaging, and analysis, as shown in schematic form in FIG. 18. […] Cells were cultured on 384-well plates, and treated with small molecules with known biologic activity, enabling classification of mechanisms of action. Drug treatment was applied for 16 hours at 10 μM concentration, performed in triplicate, before fixation and immunostaining of primary cilia. Cells were then imaged using the GE INCell 2000 High Content Analyzer, capturing 4 fields of view per well at 40× magnification. Additionally, each plate contains 8 wells of DMSO vehicle control.
A MATLAB script was developed to detect and analyze changes in ciliogenesis. […] A representative exemplary image (FIG. 19A) is cropped to better display features, scale bar represents 30 μm. A custom MATLAB script was used to identify nuclei and cilia for analysis (FIG. 19B). […] Objects are further filtered based on size and signal intensity.
Cilia length and incidence for each field of view were normalized to vehicle control on that individual plate. This allowed development of a normalized population average and standard deviation. […] To control for toxic effects only small molecules with at least 40% viability, based on number of nuclei versus control, were selected as hits. Furthermore, compounds repeated between multiple libraries eliciting the same effect on cilia length or incidence were excluded, such that only one of the repeated compounds was selected as a hit.

[1] = 10 μM, 16 hours, triplicate, normalized to vehicle control, standard deviation away from the population average

Compound | Average Incidence SD Away [1] [SD] | Average Length SD Away [1] [SD] | also measured
CCOC(=O)[C@H](CCc1ccccc1)N[C@H]1CS[C@H](c2cccs2)CN(CC(=O)O)C1=O [Temocapril HCl] | 1.877 |  | 
COC(=O)C1=CO[C@@H](O[C@@H]2O[C@H](CO)[C@@H](O)[C@H](O)[C@H]2O)[C@@H]2C(CO)=CC[C@H]12 [Geniposide] | 4.335 |  | 
O=C(O)/C=C/c1ccc(Cn2ccnc2)cc1 [Ozagrel HCl] | 1.683 |  | 
C[C@H](CCC(=O)O)[C@H]1CC[C@H]2[C@@H]3C(=O)C[C@@H]4CC(=O)CC[C@]4(C)[C@H]3CC(=O)[C@]12C [DEHYDROCHOLIC ACID] |  | 1.611 | 
O=NN(CCCl)C(=O)NC1CCCCC1 [Lomustine (CeeNU), Lomustine] | 2.228 |  | 
OCCN(CCO)c1nc(N2CCCCC2)c2nc(N(CCO)CCO)nc(N3CCCCC3)c2n1 [Dipyridamole (Persantine), Dipyridamole] | 2.055 |  | 
C[N+]1(C)[C@@H]2C[C@@H](OC(=O)C(O)(c3cccs3)c3cccs3)C[C@H]1[C@@H]1O[C@@H]12 [Tiotropium Bromide hydrate] | 1.593 |  | 
O=C1CN=C(c2cccc(Br)c2)c2oc3ccccc3c2N1 [5-BDBD] |  | 1.92 | 
CN(Cc1cnc2nc(N)nc(N)c2n1)c1ccc(C(=O)N[C@@H](CCC(=O)O)C(=O)O)cc1 (racemic) [Amethopterin (RS)] |  | 2.927 | 
CC(C(=O)[O-])c1cccc(Oc2ccccc2)c1.CC(C(=O)[O-])c1cccc(Oc2ccccc2)c1.[Ca+2] (stereo not shown) [Fenoprofen calcium] | 3.368 |  | 
CC(C)NCC(O)COc1ccc(CCOCC2CC2)cc1 (stereo not shown) [Betaxolol hydrochloride (Betoptic), Betaxolol hydrochloride] | 1.631 |  | 
CN1[C@@H]2CC[C@H]1C[C@@H](OC(=O)c1c[nH]c3ccccc13)C2 [Tropisetron] | 1.694 |  | 
O=C1NC(=O)c2c1c1c3ccccc3[nH]c1c1[nH]c3ccccc3c21 [Arcyriaflavin A] | 1.892 |  | 
COc1cc2c(cc1OC)CC(=O)N(CCCN(C)C[C@H]1Cc3cc(OC)c(OC)cc31)CC2 [Ivabradine HCl (Procoralan), Ivabradine HCl] | 1.611 |  | 
CC1=C(/C=C/C(C)=C/C=C/C(C)=C/C(=O)Nc2ccc(O)cc2)C(C)(C)CCC1 [Retinoic acid p-hydroxyanilide] |  | 2.487 | 
CNC(=O)c1cc(Oc2ccc(NC(=O)Nc3ccc(Cl)c(C(F)(F)F)c3)cc2)ccn1 [Sorafenib (Nexavar), Sorafenib] | 1.678 | 1.5 | 
COc1ccc(C(=O)c2c(C)n(CCN3CCOCC3)c3cc(I)ccc23)cc1 [AM 630] |  | 1.741 | 
CC(=O)O[C@H]1C[C@@H](OC(C)=O)C(C)(C)[C@@H]2C[C@@H](OC(C)=O)[C@@]3(C)C4=CC(=O)O[C@@H](c5ccoc5)[C@]4(C)CC[C@@H]3[C@@]12C [DEOXYKHIVORIN] |  | 1.681 | 
CN1[C@@H]2CC[C@H]1C[C@@H](OC(=O)C(CO)c1ccccc1)C2 (stereo partly shown) [Atropine] | 1.694 |  | 
CCCOc1ccc(C(=O)OCCN(CC)CC)cc1N [Proparacaine HCl] | 1.523 |  | 
COc1ccc(-c2cc3nccn3c(Nc3ncccc3C(N)=O)n2)cc1OC.Cl.O [BAY 61-3606 hydrochloride hydrate] |  | 1.54 | 
COc1cc(/C=C/C(=O)N2CCC=CC2=O)cc(OC)c1OC [Piperlongumine] |  | 3.198 | 
O=C(C[S+]([O-])Cc1ccco1)NC/C=C\COc1cc(CN2CCCCC2)ccn1 (stereo not shown) [Lafutidine] | 1.619 |  | 
O=c1[nH]c(=O)n([C@H]2C[C@H](O)[C@@H](CO)O2)cc1I [Idoxuridin] | 1.798 |  | 
S(−)-Atenolol | 2.177 | 2.057 | 
CCCc1cc(=O)[nH]c(=S)[nH]1 [Propylthiouracil] | 1.659 |  | 
CN(Cc1cnc2nc(N)nc(N)c2n1)c1ccc(C(=O)N[C@@H](CCC(=O)O)C(=O)O)cc1 [Methotrexate] | 2.424 | 3.097 | classification as hit increasing cilia length in the screen (10 μM, 16 hours, hit = 1.5 standard deviation above population average, at least 40% viability): listed as hits

Compound | Average Incidence SD Away [1] [SD] | Average Length SD Away [1] [SD] | also measured
CCC[S+]([O-])c1ccc2[nH]c(NC(=O)OC)nc2c1 (stereo not shown) [Albendazole Oxide (Ricobendazole), Albendazole Oxide] | 2.017 |  | 
(S)-(+)-Niguldipine hydrochloride |  |  | Average Length SD Away: 2.267 SD
CC(C)(C)NCC(O)c1ccccc1Cl (stereo not shown) [TULOBUTEROL] |  | 2.06 | 
C=C[C@H]1C[N@@]2CC[C@H]1C[C@H]2[C@H](O)c1ccnc2ccc(OC)cc12 [QUININE SULFATE] |  | 1.802 | 
S=c1nc[nH]c2nc[nH]c12 [MERCAPTOPURINE] |  | 1.722 | 
CCCC(=O)[O-].[Na+] [Sodium butyrate] | 2.3981 |  | 
COC(=O)Nc1nc2ccc([S+]([O-])c3ccccc3)cc2[nH]1 (stereo not shown) [Oxfendazole] | 2.268 | 1.574 | 
CN1C(=O)COc2c(C(=O)NC3CN4CCC3CC4)cc(Cl)cc21 (stereo not shown) [Azasetron HCl] | 1.653 |  | 
CC(NC(C)(C)C)C(=O)c1cccc(Cl)c1 (stereo not shown) [Amfebutamone (Bupropion), Amfebutamone] | 1.605 |  | 
O=C(/C=C/c1ccccc1)c1ccc(O[C@@H]2O[C@H](CO)[C@@H](O)[C@H](O)[C@H]2O)cc1O [2 4 -DIHYDROXYCHALCONE 4 -GLUCOSIDE] |  | 1.598 | 
CC1=NN(c2ccccc2)C(=O)C1 [Edaravone (MCI-186), Edaravone] | 1.537 |  | 
c1ccc2c(c1)[I+]c1ccccc1-2 [Diphenyleneiodonium chloride] |  | 2.603 | 
Nc1nc2[nH]cc(CCc3ccc(C(=O)N[C@@H](CCC(=O)O)C(=O)O)cc3)c2c(=O)[nH]1 [Pemetrexed] | 2.083 | 2.765 | 
CCOc1ccc2nc3cc(N)ccc3c(N)c2c1 [Ethacridine lactate monohydrate] |  | 2.114 | 
CC[C@]1(O)C[C@@H]2CN(CCc3c([nH]c4ccccc34)[C@@](C(=O)OC)(c3cc4c(cc3OC)N(C)[C@H]3[C@@](O)(C(=O)OC)[C@H](OC(C)=O)[C@]5(CC)C=CCN6CC[C@]43[C@@H]65)C2)C1 [Vinblastine] | 3.124 | 1.771 | 
CC1(C)Cc2c(-c3ccccc3)c(-c3ccc(Cl)cc3)c(CC(=O)O)n2C1 [Licofelone] | 1.936 |  | 
Gabexate mesylate | 1.87 |  | 
CC1=NCCc2c1[nH]c1cc(O)ccc21.Cl [HARMALOL HYDROCHLORIDE] |  | 1.629 | 
Cc1cc2c(s1)Nc1ccccc1N=C2N1CCN(C)CC1 [Olanzapine (Zyprexa), Olanzapine] | 1.609 |  | 
Oc1ccc(OCc2ccccc2)cc1 [MONOBENZONE] |  | 1.914 | 
C[C@@H]1CC(=O)NN=C1c1ccc(NN=C(C#N)C#N)cc1 [Levosimendan] | 1.52 |  | 
Cc1cccc([C@H](C)c2cnc[nH]2)c1C [Dexmedetomidine HCl (Precedex), Dexmedetomidine HCl] | 2.924 |  | 
CC1C(=O)OC2C(O)C34C5CC(C(C)(C)C)C36C(OC(=O)C6O)OC4(C(=O)O5)C12O (stereo not shown) [Ginkgolide B] |  | 1.581 | 
Cc1cc(NC(=O)Nc2ccc(N(C)C)cc2)c2cc(F)cc(F)c2n1 [SB 408124] |  | 2.398 | 
N#CC(c1ccc(Cl)cc1)c1c(Cl)cc(-n2ncc(=O)[nH]c2=O)cc1Cl (stereo not shown) [Diclazuril] | 1.668 |  | 
MONENSIN SODIUM |  | 1.722 | 
O=C(O)c1nn(Cc2ccc(Cl)cc2Cl)c2ccccc12 [Lonidamine] |  | 2.357 | 
